Results published in patent US5614192A, “T cell receptor peptides as therapeutics for immune-related disease” (Connective Therapeutics, Inc., priority 1993, dated 1997).
Marks after values point to notes of the source that are not given here. Ends that are not written are not given here.

Experiments:
[1] = system: T cell lines derived from rats protected from EAE; experiment: Proliferation of LN cells and T cell lines from rats protected by TCR Vβ8 peptide (Table 12); assay type: cell-based, rat
[2] = system: EAE; experiment: Clinical EAE in rats treated with TCR Vβ8(39-59) before or after onset (Table 22); assay type: in vivo
Procedure: The ability of the TCR Vβ8(39-59) given either SC (in adjuvant) or ID (in saline) to disrupt the disease process when given at various times after induction of EAE with GPBP was tested (Table 22). […] In both cases, with both routes of injection of the peptide, there was a significant reduction in the duration of the disease, though not in the severity or time of onset. The efficacy of the peptide given in saline via the ID route is of particular importance to human therapy, as it is preferred to SC injection in adjuvant.
In Experiment 2, the time of ID administration of the TCR peptide was varied, as was the dose. […] A delay in onset of the disease was also observed. Furthermore, the percentage of animals showing signs of the disease decreased. A larger dose of the peptide (200 μg) appeared less efficacious than the lower dose, possibly due to a short-term overload of the peptide which could have comprised the immune response generated against the TCR. Treatment with a similarly sized peptide corresponding to an irrelevant TCR had no effect on onset, severity or incidence of EAE, but may have reduced the duration somewhat (last line of Table 22).

[3] = system: TCR Vβ8(39-59) peptide; assay type: binding, rat
[4] = system: popliteal LN cells; experiment: Proliferation of LN cells after EAE induction and TCR peptide treatment (Table 23); assay type: cell-based, Lewis rats
Procedure: The proliferative responses and specificity of T cells in the draining LN (popliteal) of rats treated with TCR Vβ8(39-59) peptide for EAE on day 13 after disease induction were examined (Table 23). On day 0, Lewis rats received an EAE-inducing regimen of GP-BP+CFA SC into their hind footpads. […] On day 20, about 7 days after onset of EAE, popliteal LNs were removed and T cell proliferative activity in response to the indicated antigens or mitogens were tested directly.
Results are shown as net ^3 Hthymidine incorporation of 5 ×

[5] = system: EAE; conditions: rat, in vivo
Procedure: Male Lewis rats (225250 g) were challenged SC with 100 μg TCR

[6] = target: T1, Gp-S53 (Cavia porcellus, UniProt P25188); experiment: Direct ELISA, antibody reactivity (Example VII); assay type: binding, guinea pig
T1 construct: Gp-S53 (residues 75-84); made in house; host or cells: chemical solid-phase synthesis

[7] = system: EAE; experiment: Prevention, suppression and treatment of EAE with TCR Vβ8-39-59 peptide (Table 25); assay type: in vivo, Lewis rats
[8] = system: DTH (ear thickness); experiment: DTH to T cells and TCR peptides after clone transfer or peptide immunization (Table 32); assay type: in vivo, rats; conditions: 50 μg TCR peptide
Procedure: Transfer of DTH and protection: Delayed type hypersensitivity reactions were measured by the ear swelling assay (Offner et al., J. Neuroimmunol. 9: 147)) 24 and 48 h after injection i.d. of 20 μg antigen.
Rats received 5 million activated clone C45569 or clone C5GpBP

[9] = system: DTH (ear swelling); experiment: DTH to Vβ8.2-39-59 and Vβ8-44-54 in Vβ8-44-54/CFA immunized rats (Table 34); assay type: in vivo; conditions: rats immunized 14 days with Vβ8-44-54/CFA; net
Procedure: Transfer of DTH and protection: Delayed type hypersensitivity reactions were measured by the ear swelling assay (Offner et al., J. Neuroimmunol. 9: 147 (1984)) 24 and 48 h after injection i.d. of 20 μg antigen.
Values represent mean ± S.D. of net ear swelling in 6 immunized rats.

[10] = Exp. 1, 100 μg SC in CFA, day 10
[11] = Exp. 1, 100 μg SC in CFA, day 13
[12] = peptide/CFA s.q., Day 0, listed as TCR

Sequence: DMGHGLRLIHYSYDVNSTEKG [TCR Vβ8(39-59), 21-amino acid CDR2 peptide of rat TCR Vβ8]
- T Cell Proliferation ([1]; 1st value column (head not given; LN cells of protected rats)): 27 cpm × 10^-3
- T Cell Proliferation ([1]; 2nd value column (head not given, TCR Vβ8(39-59)-selected line)): 100 cpm × 10^-3
- T Cell Proliferation ([1]; 4th value column (head not given; mixed TCR- and BP-specific T cells)): 140 cpm × 10^-3
- T Cell Proliferation ([1]; +OX-6 (anti I-A)): 99 cpm × 10^-3
- T Cell Proliferation ([1]; +OX-8 (anti-CD8)): 22 cpm × 10^-3
- T Cell Proliferation ([1]; +OX-17 (anti I-E)): 100 cpm × 10^-3
- T Cell Proliferation ([1]; +OX-18 (anti class 1)): 31 cpm × 10^-3
- T Cell Proliferation ([1]; +W3/25 (anti-CD4)): 105 cpm × 10^-3
- T Cell Proliferation ([1]; GPBP-selected line): 1 cpm × 10^-3
- Day of Onset ([2]; Exp. 1, 50 μg ID, day 13): 13.4 ± 0.5
- Disease Duration ([2]; Exp. 1, 50 μg ID, day 13): 3.2 ± 0.5
- Disease Incidence ([2]; Exp. 1, 50 μg ID, day 13): 5/5
- Disease Severity ([2]; Exp. 1, 50 μg ID, day 13): 2.6 ± 0.4
- Day of Onset [2, 10]: 14.0 ± 0.4
- Disease Duration [2, 10]: 3.2 ± 0.4
- Disease Incidence [2, 10]: 5/5
- Disease Severity [2, 10]: 2.8 ± 0.4
- Day of Onset [2, 11]: 13.0 ± 0
- Disease Duration [2, 11]: 4.0 ± 0
- Disease Incidence [2, 11]: 5/5
- Disease Severity [2, 11]: 3.0 ± 0
- Day of Onset ([2]; Exp. 2, 50 μg ID, day 7): 15.0 ± 0.8
- Disease Duration ([2]; Exp. 2, 50 μg ID, day 7): 2.0 ± 2.0
- Disease Incidence ([2]; Exp. 2, 50 μg ID, day 7): 4/6
- Disease Severity ([2]; Exp. 2, 50 μg ID, day 7): 1.7 ± 1.4
- Day of Onset ([2]; Exp. 2, 50 μg ID, day 14): 16.0 ± 1.
- Disease Duration ([2]; Exp. 2, 50 μg ID, day 14): 2.3 ± 2.0
- Disease Incidence ([2]; Exp. 2, 50 μg ID, day 14): 4/6
- Disease Severity ([2]; Exp. 2, 50 μg ID, day 14): 1.7 ± 1.5
- Day of Onset ([2]; Exp. 2, 50 μg, day 0): 15.6 ± 2.6
- Disease Duration ([2]; Exp. 2, 50 μg, day 0): 2.3 ± 1.6
- Disease Incidence ([2]; Exp. 2, 50 μg, day 0): 5/6
- Disease Severity ([2]; Exp. 2, 50 μg, day 0): 1.8 ± 1.0
- Day of Onset ([2]; Exp. 2, 200 μg ID, day 13): 14.0 ± 1.4
- Disease Duration ([2]; Exp. 2, 200 μg ID, day 13): 3.0 ± 1.2
- Disease Incidence ([2]; Exp. 2, 200 μg ID, day 13): 6/6
- Disease Severity ([2]; Exp. 2, 200 μg ID, day 13): 2.3 ± 0.8
- absorbance of serum on TCR Vβ8(39-59) peptide (A405) [3]: 0.63±0.12 units
- T Cell Proliferation ([4]; LN cells day 20 of Control rats (saline day 13)): 31 cpm × 10^-3
- T Cell Proliferation ([4]; LN cells of rats given TCR Vβ 8(39-59) 50 μg ID day 13): 30 cpm × 10^-3
- T Cell Proliferation ([4]; LN cells of rats given TCR Vβ 8(39-59) 100 μg SC (in CFA) day 13): 39 cpm × 10^-3
- Clinical Signs of EAE [5]: None
- Theoretical Absorbance against Gp-S53 normalized to 1:40 ([6]; TCR d. 0, Gp-S49S d. 48, bleed d. 74): 910 Absorbance (×10^3)
- Antisera Reactivity Against Gp-S53 ([6]; TCR day 0, Gp-S(87-99) d. 44, bleed d. 65, 1:320): 46 Absorbance (×10^3)
- Antisera Reactivity Against Gp-S53 ([6]; TCR peptide d. 0, Gp-S49S d. 48, bleed d. 74, 1:80): 455 Absorbance (×10^3)
- maximum clinical severity ([7]; 50 μg i.d. on day 0, 7 or 11, controls 3.4): 1.7-1.8
- duration of EAE ([7]; 50 μg i.d. on day 0, 7 or 11, controls 6.6 days): 3 to 4 days
- EAE/TOTAL ([7]; i.d. in saline, Day 0): 5/6
- EAE/TOTAL ([7]; i.d., 10 μg, day of onset): 6/6
- Max Clin. Signs ([7]; i.d., 10 μg, day of onset): 2.8 ± 0.4
- Onset ([7]; i.d., 10 μg, day of onset): 12
- Duration ([7]; i.d., 10 μg, day of onset, listed as TCR): 4.0 ± 0.9 days
- Duration ([7]; i.d., 10 μg, day of onset, listed as TCR peptide): 4.0 days
- EAE/TOTAL ([7]; i.d., 50 μg, day of onset): 9/9
- Max Clin. Signs ([7]; i.d., 50 μg, day of onset): 2.8 ± 0.3
- Onset ([7]; i.d., 50 μg, day of onset): 12
- Duration ([7]; i.d., 50 μg, day of onset, listed as TCR): 3.1 ± 0.3 days
- Duration ([7]; i.d., 50 μg, day of onset, listed as TCR peptide): 3.1 days
- Duration ([7]; i.d., Day 0): 3.0 ± 1.8 days
- Max Clin. Signs ([7]; i.d., Day 0): 1.8 ± 1.0
- Onset ([7]; i.d., Day 0): 15
- Duration ([7]; i.d., Day 7): 2.0 ± 1.9 days
- EAE/TOTAL ([7]; i.d., Day 7): 4/6
- Max Clin. Signs ([7]; i.d., Day 7): 1.7 ± 1.4
- Onset ([7]; i.d., Day 7): 14
- Duration ([7]; i.d., Day before onset): 2.5 ± 2.1 days
- EAE/TOTAL ([7]; i.d., Day before onset): 6/8
- Max Clin. Signs ([7]; i.d., Day before onset): 1.8 ± 1.3
- Onset ([7]; i.d., Day before onset): 12
- rats with onset of EAE completely prevented ([7]; injection after GP-MBP challenge but before onset): 4/19
- rats with all clinical signs of EAE completely suppressed ([7]; injection at the same time as GP-MBP challenge): 6/19
- Duration ([7]; peptide/CFA s.q., Day 0): 2.0 days
- EAE/TOTAL ([7]; peptide/CFA s.q., Day 0): 8/13
- Max Clin. Signs ([7]; peptide/CFA s.q., Day 0): 1.3
- Onset ([7]; peptide/CFA s.q., Day 0): 13
- Duration [7, 12]: 2.0 ± 1.8 days
- Max Clin. Signs [7, 12]: 1.3 ± 1.1
- Duration ([7]; peptide/CFA s.q., Day -40): 0 ± 0 days
- EAE/TOTAL ([7]; peptide/CFA s.q., Day -40): complete protection against clinical EAE
- Max Clin. Signs ([7]; peptide/CFA s.q., Day -40): 0 ± 0
- EAE/TOTAL ([7]; peptide/CFA s.q., Day -40, listed as TCR): 0/20
- Duration ([7]; peptide/CFA s.q., Day onset): 3.5 days
- EAE/TOTAL ([7]; peptide/CFA s.q., Day onset): 20/20
- Max Clin. Signs ([7]; peptide/CFA s.q., Day onset): 2.3 ± 0.9
- Onset ([7]; peptide/CFA s.q., Day onset): 12
- Duration ([7]; peptide/CFA s.q., Day onset, listed as TCR): 3.5 ± 1.4 days
- Duration ([7]; peptide/CFA, Day 10): 3.6 ± 0.9 days
- EAE/TOTAL ([7]; peptide/CFA, Day 10): 5/5
- Max Clin. Signs ([7]; peptide/CFA, Day 10): 2.8 ± 0.4
- Onset ([7]; peptide/CFA, Day 10): 13
- DTH, change in ear thickness 48 h ([8]; Immunization None): 3 ± 1
- DTH, change in ear thickness 48 h ([8]; rats given 5 million C5Gp-BP (Vβ8.2+)): 6 ± 3
- DTH, change in ear thickness 48 h ([8]; rats given C455-69): 17 ± 2
- DTH, change in ear thickness 48 h ([8]; rats immunized with Vβ8.239-59 peptide/CFA): 39 ± 9
- DTH, change in ear thickness 48 h ([8]; rats immunized with Vβ8.639-59 peptide/CFA): 27 ± 4
- Ear Swelling 24 h [9]: 36 ± 8 mm/100
- Ear Swelling 48 h [9]: 41 ± 9 mm/100
